Laboratory results as given in BindingDB's records for patent US20240368194 (Shanghai Leadingtac Pharmaceutical, 2024).

Molecular target: T1, Interleukin-1 receptor-associated kinase 4 (Homo sapiens, UniProt Q9NWZ3)
T1 sequence (Q9NWZ3 whole entry): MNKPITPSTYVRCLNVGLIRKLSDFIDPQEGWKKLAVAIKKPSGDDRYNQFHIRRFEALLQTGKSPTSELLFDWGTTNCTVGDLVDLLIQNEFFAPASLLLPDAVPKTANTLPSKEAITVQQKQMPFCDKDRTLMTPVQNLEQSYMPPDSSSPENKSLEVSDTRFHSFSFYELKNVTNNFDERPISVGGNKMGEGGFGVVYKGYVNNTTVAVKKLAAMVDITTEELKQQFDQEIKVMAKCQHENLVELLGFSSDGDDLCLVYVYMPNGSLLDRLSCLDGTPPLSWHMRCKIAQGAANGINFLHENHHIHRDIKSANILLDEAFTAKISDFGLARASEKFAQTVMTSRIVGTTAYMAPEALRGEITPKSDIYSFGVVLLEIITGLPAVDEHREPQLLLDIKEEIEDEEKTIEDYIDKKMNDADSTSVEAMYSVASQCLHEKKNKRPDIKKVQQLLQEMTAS
Assay: 1RAK4 Kinase Activity Assay
Procedure: Then 2.5 nM 1RAK4 kinase (Carna), 1 μM biotinylated polypeptide substrate (Cisbio) and 7 μM adenosine triphosphate (Sigma-Aldrich) were sequentially added, and the mixtures were incubated at 37° C. for 120 min. Subsequently, an anti-phosphoserine/threonine antibody (Cisbio) conjugated with a europium element compound and conjugated modified XL665 streptavidin (Cisbio) were added to the reaction systems to stop the reactions. After 1 h of incubation at room temperature, the fluorescence intensity of each well was measured at the excitation wavelength of 337 nm and the emission wavelengths of 620 nm and 665 nm with a microplate reader EnVision (PerkinElmer) in the HTRF mode, and Ratio values were calculated using the formula Ratio=(665 nm/620 nm)×[…]. The inhibition rate of the compound at each concentration was calculated by comparing the fluorescence intensity ratio with that of the control group.

O=C1CCN(c2cc(C(=O)N3CCC4(CCN(C[C@H]5CC[C@H](n6cc(NC(=O)c7cnn8ccc(N9C[C@H]%10C[C@@H]9CO%10)nc78)c(Cl)n6)CC5)CC4)CC3)ccc2Cl)C(=O)N1 [US20240368194, Example 5]
IC50: 360 nM

Cc1nn([C@H]2CC[C@H](CN3CCC4(CC3)CCN(C(=O)c3ccc(Cl)c(N5CCC(=O)NC5=O)c3)CC4)CC2)cc1NC(=O)c1cnn2ccc(N3C[C@H]4C[C@@H]3CO4)nc12 [US20240368194, Example 7]
IC50: 313 nM

CN(CCC1CCN(C(=O)c2ccc(Cl)c(N3CCC(=O)NC3=O)c2)CC1)C[C@H]1CC[C@H](n2cc(NC(=O)c3cnn4ccc(N5C[C@H]6C[C@@H]5CO6)nc34)c(C(F)F)n2)CC1 [US20240368194, Example 11]
IC50: 18.5 nM

O=C1CCC(c2ccc(C(=O)N3CCC4(CCC(CN5CCC(n6cc(NC(=O)c7cnn8ccc(N9CCOCC9)nc78)c(C(F)F)n6)CC5)CC4)CC3)cc2)C(=O)N1 (stereo not given) [US20240368194, Example 26]
IC50: 14.3 nM

CN(CCC1CCN(C(=O)c2ccc(OC(F)(F)F)c(N3CCC(=O)NC3=O)c2)CC1)C[C@H]1CC[C@H](n2cc(NC(=O)c3cnn4ccc(N5C[C@H]6C[C@@H]5CO6)nc34)c(C(F)F)n2)CC1 [US20240368194, Example 33]
IC50: 23.9 nM

O=C1CCN(c2cc(C#CCOC3CCN(C[C@H]4CC[C@H](n5cc(NC(=O)c6cnn7ccc(N8CCOCC8)nc67)c(C(F)F)n5)CC4)CC3)ccc2Cl)C(=O)N1 [US20240368194, Example 38]
IC50: 20 nM

CN1CCN(c2ccn3ncc(C(=O)Nc4cn([C@H]5CC[C@H](CN(C)CCC6CCN(C(=O)c7ccc(F)c(N8CCC(=O)NC8=O)c7)CC6)CC5)nc4C(F)F)c3n2)CC1 [US20240368194, Example 41]
IC50: 25.5 nM

CN(CC[C@H]1CC[C@H](n2cc(NC(=O)c3cnn4ccc(N5C[C@H]6C[C@@H]5CO6)nc34)c(C(F)F)n2)CC1)CC1CCN(C(=O)c2ccc(Cl)c(N3CCC(=O)NC3=O)c2)CC1 [US20240368194, Example 46]
IC50: 278 nM

COc1ccc(C(=O)N2CCC3(CCC(N(C)C[C@H]4CC[C@H](n5cc(NC(=O)c6cnn7ccc(N8CCOCC8)nc67)c(C(F)F)n5)CC4)CC3)CC2)cc1N1CCC(=O)NC1=O [US20240368194, Example 59]
IC50: 8.71 nM

CN(CCC1CCN(C(=O)c2ccc(Cl)c(N3CCC(=O)NC3=O)c2)CC1)C[C@]1(O)CC[C@@H](n2cc(NC(=O)c3cnn4ccc(N5C[C@H]6C[C@@H]5CO6)nc34)c(C(F)F)n2)CC1 [US20240368194, Example 65]
IC50: 52.1 nM
